The results in this text go back to article PMC7804942, “The amphibian peptide Yodha is virucidal for Zika and dengue viruses” (Scientific Reports, 2021).

The test system of one assay is ZIKV. Kind of assay: ZIKV neutralisation by mutant, enantiomer and variant peptides (strain not stated). It is filed as cell-based, Zika virus. How it is done: To further characterize Yodha peptide, we generated alanine-scanning mutants of the peptide, which removes the side chain, but maintains peptide conformation, allowing for the assessment of the significance of each amino acid within the larger structure (Fig. 4A). Each of 23 mutated peptides was tested for its (a) ability to neutralize ZIKV (Fig. 4B) and (b) toxicity against human RBC, if any (Fig. 4C).
So next, we sought to determine how common this peptide or its analogs are in host defense peptides isolated from elsewhere in the world. […] We then determined the extent to which any of these variant peptides can neutralize ZIKV. […] We also generated a series of mutant Yodha peptides, including one which lacks the C terminal DDQERC, a short 12 peptide fragment that lacks the EEERGA from variant #12, and a S1P peptide that replace S1-P in the full-length Yodha (Fig. 5D) and tested their activity against ZIKV (Fig. 5D).
(§1) Peptides were incubated with ZIKV (100 FFU/well) for 2 h at 37 °C. This incubated mixture was used to infect Vero cells for 1.5 h at 37 °C. Cells and inoculum were overlaid with 2% methylcellulose solution (OptiMEM; Gibco) and incubated for 72 h at 37 °C. Cells were washed with PBS and fixed with a 1:1 methanol/acetone mixture for 30 min. Cells were blocked with 5% milk/PSB at room temperature for 20 min and incubated with primary antibody (anti-flavivirus mouse 4G2[10] antibody) for 2 h at 37 °C. Then, cells were incubated with secondary antibody (HRP-conjugated goat anti-mouse IgG, Cell Signaling) for 1 h at 37 °C. Cells were developed with TrueBlue Peroxidase Substrate (KPL). Plates were read on a CTL-ImmunoSpot S6 Micro analyzer.

In another assay the test system is DENV3. As to conditions: FFA. The method, then:
Dengue virus strains 1, 2, 3 and 4 were treated with wither Yodha or control OVA peptide at (A) 50 µM (B) 160 µM concentration and the % of viral focus forming units were determined. (C) IC50 measurement of Yodha in DENVs infection by FFA. […] OVA peptide was used a negative control.
as §1

Where no end group is shown, it is not given here.

Regarding “PMLLLFFLGTISLSLCQEEERGA [variant #12, brevinin-2KK2, naturally occurring variant of Yodha from Rana kukunoris]”, the “increased effect against ZIKV than Yodha peptide” value with ZIKV was 1.6 fold. In the case of “PMLLLFFLGTISLSLCQ [truncated Yodha variant 12]”, in the assay on DENV3 (dose escalation), the “efficiency against DENV3 compared to the full length Yodha peptide” value is on record as “very efficient”. Besides, the IC50 with DENV3 (read-out: IC50 for DENV3) was 30 µM. For the same sequence, the “activity of truncated and S1P mutant peptides against ZIKV versus WT Yodha” value in the assay with ZIKV was “significantly improved activity”. “PMLLLFFLGTISLSLCQEERGA [variant 21, naturally occurring variant of Yodha isolated from the frog I. temporalis]”: in the assay on ZIKV, the “virucidal activity of naturally occurring variants against ZIKV” value was “exhibited activity”.
